For one assay, the species on record is Homo sapiens. As to the kind of experiment: Selectivity ratio, ratio of Ki for human wild type EGFR to Ki for EGFR L858R mutant (unknown origin).
The target of assay [1] is Epidermal growth factor receptor (Homo sapiens, UniProt P00533, L858R). As to the kind of experiment: Binding affinity to EGFR L858R mutant (unknown origin) assessed as apparent inhibition constant in presence of ATP by TR-FRET assay. Conditions: read-out: Ki(app). (Time-resolved FRET reads energy transfer from a long-lived donor to a nearby acceptor.)
Assay [2] has as its system Epidermal growth factor receptor (Homo sapiens), P00533 [L858R].
The test system is the same in assay [3]. The source holds these as a separate data set.
For assay [4], the system named is Epidermal growth factor receptor (Homo sapiens), P00533 [L858R,T790M].
Epidermal growth factor receptor (Homo sapiens), P00533 [L858R,T790M], sequence (P00533 whole entry T790M/L858R, looked up): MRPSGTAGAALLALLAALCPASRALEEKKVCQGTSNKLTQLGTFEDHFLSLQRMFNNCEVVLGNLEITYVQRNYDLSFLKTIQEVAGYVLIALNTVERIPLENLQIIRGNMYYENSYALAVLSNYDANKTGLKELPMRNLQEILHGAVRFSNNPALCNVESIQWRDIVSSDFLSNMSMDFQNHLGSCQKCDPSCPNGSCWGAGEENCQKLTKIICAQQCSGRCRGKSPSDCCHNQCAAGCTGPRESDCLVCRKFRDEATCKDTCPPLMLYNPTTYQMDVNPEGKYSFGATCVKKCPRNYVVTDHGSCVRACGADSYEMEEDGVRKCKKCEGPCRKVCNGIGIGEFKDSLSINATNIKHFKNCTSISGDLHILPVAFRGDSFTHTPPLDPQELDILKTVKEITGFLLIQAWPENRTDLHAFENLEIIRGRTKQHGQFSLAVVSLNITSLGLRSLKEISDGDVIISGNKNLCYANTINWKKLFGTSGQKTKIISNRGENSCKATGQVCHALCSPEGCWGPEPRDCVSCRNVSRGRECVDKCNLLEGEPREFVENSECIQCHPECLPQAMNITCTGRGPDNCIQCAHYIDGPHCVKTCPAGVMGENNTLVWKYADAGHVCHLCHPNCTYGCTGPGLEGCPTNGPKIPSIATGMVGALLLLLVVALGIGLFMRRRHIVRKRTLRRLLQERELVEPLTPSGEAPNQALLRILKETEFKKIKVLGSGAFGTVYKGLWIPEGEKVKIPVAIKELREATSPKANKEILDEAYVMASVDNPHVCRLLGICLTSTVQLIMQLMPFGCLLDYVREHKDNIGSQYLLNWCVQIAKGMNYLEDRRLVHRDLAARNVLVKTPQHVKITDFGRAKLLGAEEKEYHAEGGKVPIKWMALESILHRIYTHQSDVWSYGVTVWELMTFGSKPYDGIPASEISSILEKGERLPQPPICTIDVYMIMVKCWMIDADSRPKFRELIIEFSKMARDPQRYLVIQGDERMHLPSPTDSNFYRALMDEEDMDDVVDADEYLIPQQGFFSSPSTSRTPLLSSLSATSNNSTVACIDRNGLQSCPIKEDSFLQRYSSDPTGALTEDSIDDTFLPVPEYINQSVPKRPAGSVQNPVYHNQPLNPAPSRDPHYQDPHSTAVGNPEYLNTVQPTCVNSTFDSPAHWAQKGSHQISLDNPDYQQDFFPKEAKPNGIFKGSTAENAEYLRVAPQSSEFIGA

Epidermal growth factor receptor (Homo sapiens), P00533 [L858R], sequence (P00533 whole entry L858R): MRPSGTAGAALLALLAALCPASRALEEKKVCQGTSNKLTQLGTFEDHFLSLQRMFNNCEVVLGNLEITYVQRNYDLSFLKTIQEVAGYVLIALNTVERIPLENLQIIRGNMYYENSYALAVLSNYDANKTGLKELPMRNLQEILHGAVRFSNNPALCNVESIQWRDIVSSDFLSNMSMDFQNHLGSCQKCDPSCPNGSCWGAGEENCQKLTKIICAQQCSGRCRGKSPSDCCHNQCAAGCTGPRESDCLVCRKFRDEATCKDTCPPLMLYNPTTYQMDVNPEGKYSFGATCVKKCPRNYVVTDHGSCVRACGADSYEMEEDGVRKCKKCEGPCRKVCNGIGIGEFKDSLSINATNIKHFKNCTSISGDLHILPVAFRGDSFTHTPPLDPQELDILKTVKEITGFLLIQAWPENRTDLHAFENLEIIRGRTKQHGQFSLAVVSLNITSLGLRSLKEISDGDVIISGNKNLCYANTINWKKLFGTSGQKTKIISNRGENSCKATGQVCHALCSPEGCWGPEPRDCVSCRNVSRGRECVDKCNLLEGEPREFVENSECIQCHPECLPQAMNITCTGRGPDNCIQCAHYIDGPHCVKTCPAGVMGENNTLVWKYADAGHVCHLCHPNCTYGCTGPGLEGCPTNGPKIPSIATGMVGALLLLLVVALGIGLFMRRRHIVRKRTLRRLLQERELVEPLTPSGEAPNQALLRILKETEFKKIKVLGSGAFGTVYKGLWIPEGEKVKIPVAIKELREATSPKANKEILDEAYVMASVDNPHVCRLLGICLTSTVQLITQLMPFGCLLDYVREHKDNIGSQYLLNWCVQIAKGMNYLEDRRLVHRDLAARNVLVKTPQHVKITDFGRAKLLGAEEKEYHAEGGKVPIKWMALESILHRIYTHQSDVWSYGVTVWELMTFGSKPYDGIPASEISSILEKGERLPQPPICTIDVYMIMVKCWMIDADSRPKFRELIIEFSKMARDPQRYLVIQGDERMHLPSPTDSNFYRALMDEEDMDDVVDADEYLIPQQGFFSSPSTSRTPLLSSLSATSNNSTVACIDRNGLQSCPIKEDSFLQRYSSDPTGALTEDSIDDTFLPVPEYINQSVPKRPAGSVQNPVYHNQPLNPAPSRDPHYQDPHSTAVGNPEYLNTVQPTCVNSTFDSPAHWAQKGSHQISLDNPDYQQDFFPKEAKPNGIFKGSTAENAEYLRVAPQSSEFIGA
Epidermal growth factor receptor, sequence (P00533 25-1210 L858R limits assumed): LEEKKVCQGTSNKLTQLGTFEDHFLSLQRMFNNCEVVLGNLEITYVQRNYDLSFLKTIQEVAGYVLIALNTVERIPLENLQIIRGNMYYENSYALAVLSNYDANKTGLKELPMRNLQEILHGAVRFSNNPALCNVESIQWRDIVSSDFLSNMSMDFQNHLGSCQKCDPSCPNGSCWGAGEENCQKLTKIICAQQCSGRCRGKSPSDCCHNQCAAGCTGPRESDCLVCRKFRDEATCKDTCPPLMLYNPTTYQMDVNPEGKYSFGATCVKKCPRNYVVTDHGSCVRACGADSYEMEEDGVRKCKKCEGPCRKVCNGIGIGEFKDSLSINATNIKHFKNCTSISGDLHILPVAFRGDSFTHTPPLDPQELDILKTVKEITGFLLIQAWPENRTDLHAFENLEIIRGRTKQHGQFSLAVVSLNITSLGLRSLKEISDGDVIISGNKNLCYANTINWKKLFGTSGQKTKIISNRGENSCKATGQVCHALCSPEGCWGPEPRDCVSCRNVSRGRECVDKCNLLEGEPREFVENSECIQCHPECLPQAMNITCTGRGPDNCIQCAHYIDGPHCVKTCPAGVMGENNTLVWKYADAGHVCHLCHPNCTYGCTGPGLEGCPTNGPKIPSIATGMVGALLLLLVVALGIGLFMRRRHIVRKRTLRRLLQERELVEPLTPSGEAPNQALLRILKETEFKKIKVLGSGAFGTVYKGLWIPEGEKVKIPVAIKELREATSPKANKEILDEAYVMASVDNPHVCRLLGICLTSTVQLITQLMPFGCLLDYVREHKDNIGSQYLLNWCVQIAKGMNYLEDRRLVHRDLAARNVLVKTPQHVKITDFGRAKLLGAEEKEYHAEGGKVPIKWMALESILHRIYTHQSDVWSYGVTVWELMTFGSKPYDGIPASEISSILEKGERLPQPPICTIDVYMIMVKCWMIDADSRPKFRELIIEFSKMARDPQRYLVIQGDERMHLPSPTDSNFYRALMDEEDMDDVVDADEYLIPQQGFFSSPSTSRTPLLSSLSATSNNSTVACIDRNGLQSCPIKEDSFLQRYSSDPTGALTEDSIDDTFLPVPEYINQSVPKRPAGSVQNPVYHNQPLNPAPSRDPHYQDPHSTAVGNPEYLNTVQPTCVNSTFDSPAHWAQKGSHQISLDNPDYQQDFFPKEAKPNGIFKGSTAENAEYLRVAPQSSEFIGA

Regarding `C=CC(=O)Nc1cc(Nc2nccc(-n3cc(CN(C)C)c(-c4ccccc4)n3)n2)c(OC)cc1N1CCOCC1` [LAZERTINIB], the Ratio Ki in the assay listed under Homo sapiens is 0.358. For the same compound, in assay [1], the Ki is 4.68 nM. The Kinact in assay [2] was 0.00971 s⁻¹; in assay [3], 5.88 10^-3/s; in assay [4] it was 3.92 10^-3/s.

These data come from ChEMBL document CHEMBL5532668, “Pitfalls and Considerations in Determining the Potency and Mutant Selectivity of Covalent Epidermal Growth Factor Receptor Inhibitors” (J Med Chem, 2024).
